Experiments:
[1] = Stopped-flow kinetic analysis of superoxide dismutation; type: biochemical; parameters: kcat pH 8.1 / kcat pH 7.4: unit not given here
Source text: Stopped-flow kinetic analysis is an accurate and direct method for quantitatively monitoring the decay rates of superoxide in water.
For the attainment of consistent and accurate measurements all reagents were biologically clean and metal-free. To achieve this, all buffers (Calbiochem) were biological grade, metal-free buffers and were handled with utensils which had been washed first with 0.1N HCl, followed by purified water, followed by a rinse in a 10^−4 M EDTA bath at pH 8, followed by a rinse with purified water and dried at 65° C. for several hours. Dry DMSO solutions of potassium superoxide (Aldrich) were prepared under a dry, inert atmosphere of argon in a Vacuum Atmospheres dry glovebox using dried glassware. The DMSO solutions were prepared immediately before every stopped-flow experiment. A mortar and pestle were used to grind the yellow solid potassium superoxide (~100 mg). The powder was then ground with a few drops of DMSO and the slurry transferred to a flask containing an additional 25 ml of DMSO. The resultant slurry was stirred for ½ h and then filtered. This procedure gave reproducibly ~2 mM concentrations of superoxide in DMSO. These solutions were transferred to a glovebag under nitrogen in sealed vials prior to loading the syringe under nitrogen. It should be noted that the DMSO/superoxide solutions are extremely sensitive to water, heat, air, and extraneous metals. A fresh, pure solution has a very slight yellowish tint.
Water for buffer solutions was delivered from an in-house deionized water system to a Barnstead Nanopure Ultrapure Series 550 water system and then double distilled, first from alkaline potassium permanganate and then from a dilute EDTA solution. For example, a solution containing 1.0 g of potassium permanganate, 2 liters of water and additional sodium hydroxide necessary to bring the pH to 9.0 were added to a 2-liter flask fitted with a solvent distillation head. This distillation will oxidize any trace of organic compounds in the water. The final distillation was carried out under nitrogen in a 2.5-liter flask containing 1500 ml of water from the first still and 1.0×10^−6 M EDTA. This step will remove remaining trace metals from the ultrapure water. To prevent EDTA mist from volatilizing over the reflux arm to the still head, the 40-cm vertical arm was packed with glass beads and wrapped with insulation. This system produces deoxygenated water that can be measured to have a conductivity of less than 2.0 nanomhos/cm^2.
The stopped-flow spectrometer system was designed and manufactured by Kinetic Instruments Inc. (Ann Arbor, Mich.) and was interfaced to a MAC IICX personal computer. The software for the stopped-flow analysis was provided by Kinetics Instrument Inc. and was written in QuickBasic with MacAdios drivers. Typical injector volumes (0.10 ml of buffer and 0.006 ml of DMSO) were calibrated so that a large excess of water over the DMSO solution were mixed together. The actual ratio was approximately 19/1 so that the initial concentration of superoxide in the aqueous solution was in the range 60-120 μM. […]

[2] = polypropylene admixed 2% by weight, melted at 250° C., extracted with pure water
Method: 0.105 g of Compound 38 was added to 4.9 g of cryoground polypropylene. The mixture was melted at 250° C. and extruded into a strand and a fiber. In this manner, a polypropylene modified with a non-proteinaceous catalyst, 2% by weight, was made. The product strand was cryoground and extracted with pure water.

Compound | kcat pH 7.4 [1] | kcat pH 8.1 [1] | activity of compound extracted from the strand ([1]; extracted with pure water from polypropylene strand, confirmed by stopped-flow kinetic analysis and HPLC-UV) | elution of the admixed compound from the cryoground polymer [2] [%]
[Cl][Mn]1234([Cl])[N]5CC[N]1CC[N]2CC[N]3CC[N]4CC5 [Compound 1] | 4.13 | 2.24 | – | –
[Cl][Mn]1234([Cl])[N]5CC[N]1CC[N]2CC(Cc1ccccc1)[N]3CC[N]4CC5 (centres unmarked) [Compound 2] | 7.21 | 2.57 | – | –
C#CCC1C[N]2CC[N]3CC[N]4CC[N]5CC[N]1[Mn]4352([Cl])[Cl] (centres unmarked) [Compound 4] | – | 1.75 | – | –
C[C@@H]1C[N]2[C@@H](C)C[N]3[C@@H](C)C[N]4[C@H](C)C[N]5[C@@H](C)C[N]1[Mn]4523([Cl])[Cl] [Compound 5] | 3.82 | 3.90 | – | –
Oc1ccccc1CC1C[N]2CC[N]3CC[N]4CC[N]5CC[N]1[Mn]4352([Cl])[Cl] (centres unmarked) [Compound 6] | 6.99 | 3.83 | – | –
[Cl][Mn]1234([Cl])[N]5CC[N]1CC[N]2[C@@H](Cc1cnc[nH]1)C[N]3[C@H](Cc1cnc[nH]1)C[N]4CC5 [Compound 7] | 2.00 | 1.58 | – | –
CNCCCC[C@@H]1C[N]2CC[N]3CC[N]4CC[N]5[C@@H](CCCCNC)C[N]1[Mn]3425([Cl])[Cl] [Compound 8] | 5.95 | 5.90 | – | –
FC(F)(F)CC1C[N]2CC[N]3CC[N]4CC[N]5CC[N]1[Mn]4352([Cl])[Cl] (centres unmarked) [Compound 9] | 2.77 | 1.68 | – | –
OC[C@@H]1C[N]2[C@@H](CO)C[N]3[C@@H](CO)C[N]4[C@H](CO)C[N]5[C@@H](CO)C[N]1[Mn]4523([Cl])[Cl] [Compound 10] | 2.68 | 2.68 | – | –
NCCC[C@H]1C[N]2[C@@H]3CCCC[C@H]3[N]3CC[N]4CC[N]5CC[N]1[Mn]5432([Cl])[Cl] [Compound 11] | 4.79 | 2.85 | – | –
[Cl-].[Cl-].[NH3+]CCCC[C@@H]1C[N]2[C@@H](CCCC[NH3+])C[N]3[C@@H]4CCCC[C@H]4[N]4CC[N]5CC[N]1[Mn]5243([Cl])[Cl] [Compound 12] | 10.20 | 5.39 | – | –
C=CCC1C[N]2CC[N]3CC[N]4CC[N]5CC[N]1[Mn]4352([Cl])[Cl] (centres unmarked) [Compound 13] | – | 1.63 | – | –
NCCC[C@H]1C[N]2[C@H]3CCCC[C@H]3[N]3CC[N]4[C@H]5CCCC[C@H]5[N]5CC[N]1[Mn]5342([Cl])[Cl] [Compound 14] | 7.58 | 3.84 | – | –
C[C@H](CCCNCCC[C@H]1C[N]2[C@@H]3CCCC[C@H]3[N]3CC[N]4CC[N]5CC[N]1[Mn]5432([Cl])[Cl])[C@H]1CCC2[C@@H]3CC[C@@H]4C[C@H](O)CC[C@]4(C)C3CC[C@@]21C (some centres unmarked) [Compound 15] | 2.41 | 0.77 | – | –
NCC[C@H]1C[N]2[C@@H](CCN)C[N]3[C@@H]4CCCC[C@H]4[N]4CC[N]5CC[N]1[Mn]5243([Cl])[Cl] [Compound 16] | 2.48 | 1.97 | – | –
[Cl][Mn]1234([Cl])[N]5CC[N]1C1CCCCC1[N]2CC[N]3C1CCCCC1[N]4CC5 (centres unmarked) [Compound 17] | 12.60 | 4.09 | – | –
C[C@@H]1C[N]2[C@H]3CCCC[C@H]3[N]3CC[N]4C5CCCCC5[N]5CC[N]1[Mn]5432([Cl])[Cl] (some centres unmarked) [Compound 18] | 15.00 | 4.00 | – | –
C[C@@H]1C[N]2[C@@H](C)C[N]3[C@@H]4CCCC[C@H]4[N]4C[C@H](C)[N]5CC[N]1[Mn]4352([Cl])[Cl] [Compound 19] | 8.48 | 4.08 | – | –

Compound | kcat pH 7.4 [1] | kcat pH 8.1 [1] | activity of compound extracted from the strand ([1]; extracted with pure water from polypropylene strand, confirmed by stopped-flow kinetic analysis and HPLC-UV) | elution of the admixed compound from the cryoground polymer [2] [%]
[Cl-].[Cl][Fe]1234([Cl])[N]5CC[N]1C1CCCCC1[N]2CC[N]3C1CCCCC1[N]4CC5 (centres unmarked) [Compound 20] | 3.29 | 0.93 | – | –
CC(C)(C)SC[C@H]1C[N]2[C@@H]3CCCC[C@H]3[N]3C[C@H](CSC(C)(C)C)[N]4CC[N]5CC[N]1[Mn]5423([Cl])[Cl] [Compound 21] | 2.93 | 1.29 | – | –
N#C[S][Mn]1234([S]C#N)[N]5CC[N]1C1CCCCC1[N]2CC[N]3C1CCCC[C@H]1[N]4CC5 (some centres unmarked) [Compound 22] | 11.40 | 5.03 | – | –
OC[C@@H]1C[N]2CC[N]3[C@@H](CO)C[N]4[C@H](CO)C[N]5[C@@H](CO)C[N]1[Mn]2345([Cl])[Cl] [Compound 23] | 6.61 | 3.47 | – | –
C[C@@H]1C[N]2[C@@H](C)C[N]3CC[N]4C[C@H](C)[N]5[C@@H](COc6ccco6)C[N]1[Mn]3425([Cl])[Cl] [Compound 24] | 2.55 | 2.55 | – | –
COC(=O)C1=C(C(=O)OC)C2OC1C=C2COC[C@H]1C[N]2[C@H](C)C[N]3[C@@H](C)C[N]4CC[N]5[C@H](C)C[N]1[Mn]4523([Cl])[Cl] (some centres unmarked) [Compound 25] | 4.04 | 2.34 | – | –
OC[C@@H]1C[N]2[C@@H]3CCCC[C@H]3[N]3CC[N]4C5CCCCC5[N]5CC[N]1[Mn]5432([Cl])[Cl] (some centres unmarked) [Compound 26] | 10.12 | 3.47 | – | –
C[C@H]1C[N]2[C@@H](CCCO)C[N]3[C@@H]4CCCC[C@H]4[N]4C[C@H](CCCO)[N]5CC[N]1[Mn]5243([Cl])[Cl] [Compound 27] | 4.83 | 2.50 | – | –
C[C@@H]1C[N]2[C@@H](CCCN)C[N]3[C@@H]4CCCC[C@H]4[N]4CC[N]5[C@@H](C)C[N]1[Mn]2435([Cl])[Cl] [Compound 31] | 2.97 | 2.91 | – | –
C[C@@H]1C[N]2[C@@H](CCCNC(=O)CCC(=O)O)C[N]3[C@@H]4CCCC[C@H]4[N]4CC[N]5[C@@H](C)C[N]1[Mn]2435([Cl])[Cl] [Compound 32] | 1.74 | 1.43 | – | –
CC(=O)OC[C@@H]1C[N]2CC[N]3[C@@H](COC(C)=O)C[N]4[C@H](COC(C)=O)C[N]5[C@@H](COC(C)=O)C[N]1[Mn]2345([Cl])[Cl] [Compound 33] | 7.27 | 4.08 | – | –
CCC(=O)OCC1C[N]2CC[N]3[C@@H](COC(=O)CC)C[N]4[C@@H](COC(=O)CC)C[N]5[C@@H](COC(=O)CC)C[N]1[Mn]2354([Cl])[Cl] (some centres unmarked) [Compound 34] | 2.70 | 2.78 | – | –
C[C@H]1C[N]2[C@@H](C)C[N]3[C@@H](CCCNC(=O)CC(CC(=O)O)NC(=O)CNC(=O)c4cccc(NC(=N)N)c4)C[N]4[C@H]5CCCC[C@H]5[N]5CC[N]1[Mn]3524([Cl])[Cl] (some centres unmarked) [Compound 35] | 4.38 | 2.87 | – | –
O=C(OC[C@H]1C[N]2[C@@H](COC(=O)c3ccccc3)C[N]3[C@@H](COC(=O)c4ccccc4)C[N]4[C@@H](COC(=O)c5ccccc5)C[N]5CC[N]1[Mn]5423([Cl])[Cl])c1ccccc1 [Compound 36] | 0.63 | 0.49 | – | –
CC(C)C(=O)OC[C@@H]1C[N]2[C@@H]3CCCC[C@H]3[N]3CC[N]4C5CCCCC5[N]5CC[N]1[Mn]5432([Cl])[Cl] (some centres unmarked) [Compound 37] | 3.08 | – | – | –
[Cl-].[Cl-].[Mn+2].c1cc2nc(c1)CN[C@@H]1CCCC[C@H]1NCCN[C@@H]1CCCC[C@H]1NC2 [Compound 38, Manganese (II) dichloro{(4R,9R,14R,19R)-3,10,13,20,26-pentaazatetracyclo [20.3.1.04,9.014,19]hexacosa-1(26),22(23),24-triene}] | 1.64 | 1.19 | Active | ~10
CCC(=O)OC[C@H]1C[N]2[C@@H]3CCCC[C@H]3[N]3CC[N]4C5CCCCC5[N]5CC[N]1[Mn]5432([Cl])[Cl] (some centres unmarked) [Compound 39] | 3.89 | 2.32 | – | –
Manganese(II) dichloro(4R,9R,11R,14R,19R)-3,10,13,20,26-pentaaza-(2R,21R)-dimethyltetracyclo[20.3.1.0^4,9, 0^14,19]hexacose-1(25),22(26),23-triene [Compound 40] | 90.00 | 11.00 | – | –

From patent US7445641B1, “Biomaterials modified with superoxide dismutase mimics” (priority 1999, dated 2008)
